Reference: US11370794B2, “Toll-like receptor antagonist compounds and methods of use” (Dynavax Technologies Corporation, priority 2016, dated 2022)

Tests used:
[1] = molecular target: T1, human TLR9 (Homo sapiens, UniProt Q9NR96); experiment: Inhibition of human TLR9 in human B cells (IL-6 ELISA); assay type: cell-based; conditions: for IC50: human B cells, agonist 1018 ISS 1 μM, IL-6 readout, 48 hours, range about 0.01 to 10 μM, read-out: Human TLR9 IC50; for inhibits TLR9-dependent responses (in words): summary statement of the description
T1 construct: endogenous in cells; host or cells: primary human B cells (CD19 microbeads) from buffy coats of healthy donors
T1 sequence (Q9NR96 26-1032): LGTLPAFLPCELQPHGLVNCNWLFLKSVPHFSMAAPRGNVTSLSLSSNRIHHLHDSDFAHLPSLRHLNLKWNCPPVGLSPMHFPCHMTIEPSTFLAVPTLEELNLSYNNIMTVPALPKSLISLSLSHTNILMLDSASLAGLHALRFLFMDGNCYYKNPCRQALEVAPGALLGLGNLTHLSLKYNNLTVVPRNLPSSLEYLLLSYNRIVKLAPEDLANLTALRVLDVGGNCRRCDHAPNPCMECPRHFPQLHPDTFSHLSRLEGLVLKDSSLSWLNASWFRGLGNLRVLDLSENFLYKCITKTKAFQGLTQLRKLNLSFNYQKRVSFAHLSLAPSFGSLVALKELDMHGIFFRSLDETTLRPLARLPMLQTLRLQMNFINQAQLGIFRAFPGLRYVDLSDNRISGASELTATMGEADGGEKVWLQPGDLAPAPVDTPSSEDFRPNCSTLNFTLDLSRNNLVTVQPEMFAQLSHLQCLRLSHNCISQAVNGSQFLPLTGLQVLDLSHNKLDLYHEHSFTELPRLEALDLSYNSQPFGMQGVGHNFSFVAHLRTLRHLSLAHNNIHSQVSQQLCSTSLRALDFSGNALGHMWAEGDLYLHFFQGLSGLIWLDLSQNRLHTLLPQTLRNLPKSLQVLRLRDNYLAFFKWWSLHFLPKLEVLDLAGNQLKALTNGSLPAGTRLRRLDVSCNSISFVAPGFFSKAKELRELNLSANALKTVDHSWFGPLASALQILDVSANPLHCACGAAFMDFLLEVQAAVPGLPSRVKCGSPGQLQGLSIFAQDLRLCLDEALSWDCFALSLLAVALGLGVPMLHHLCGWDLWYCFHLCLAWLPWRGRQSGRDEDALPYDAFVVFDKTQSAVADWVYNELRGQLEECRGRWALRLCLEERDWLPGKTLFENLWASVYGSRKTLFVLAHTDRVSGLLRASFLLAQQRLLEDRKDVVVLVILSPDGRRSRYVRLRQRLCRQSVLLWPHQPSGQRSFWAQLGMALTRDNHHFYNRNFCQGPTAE
Procedure, shortened: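 Primary human B cells (CD19-isolated from donor buffy coats), ~300,000 per well, treated with compound (about 0.01–10 μM, some 0.001–30 μM) then 1 μM CpG oligonucleotide 1018 ISS. After 48 hours at 37° C, supernatant IL-6 measured by ELISA; IC50 from concentration-response of TLR9-dependent activity.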

[2] = molecular target: T2, human TLR7 (Homo sapiens, UniProt Q9NYK1); experiment: Inhibition of human TLR7 in human plasmacytoid dendritic cells (interferon-alpha ELISA); assay type: cell-based; conditions: agonist heat inactivated influenza virus, 24 hours
T2 construct: Human plasmacytoid dendritic cells were plated into 96 well plates; endogenous in cells; host or cells: primary human plasmacytoid dendritic cells from buffy coats of healthy donors
T2 sequence (Q9NYK1 27-1049): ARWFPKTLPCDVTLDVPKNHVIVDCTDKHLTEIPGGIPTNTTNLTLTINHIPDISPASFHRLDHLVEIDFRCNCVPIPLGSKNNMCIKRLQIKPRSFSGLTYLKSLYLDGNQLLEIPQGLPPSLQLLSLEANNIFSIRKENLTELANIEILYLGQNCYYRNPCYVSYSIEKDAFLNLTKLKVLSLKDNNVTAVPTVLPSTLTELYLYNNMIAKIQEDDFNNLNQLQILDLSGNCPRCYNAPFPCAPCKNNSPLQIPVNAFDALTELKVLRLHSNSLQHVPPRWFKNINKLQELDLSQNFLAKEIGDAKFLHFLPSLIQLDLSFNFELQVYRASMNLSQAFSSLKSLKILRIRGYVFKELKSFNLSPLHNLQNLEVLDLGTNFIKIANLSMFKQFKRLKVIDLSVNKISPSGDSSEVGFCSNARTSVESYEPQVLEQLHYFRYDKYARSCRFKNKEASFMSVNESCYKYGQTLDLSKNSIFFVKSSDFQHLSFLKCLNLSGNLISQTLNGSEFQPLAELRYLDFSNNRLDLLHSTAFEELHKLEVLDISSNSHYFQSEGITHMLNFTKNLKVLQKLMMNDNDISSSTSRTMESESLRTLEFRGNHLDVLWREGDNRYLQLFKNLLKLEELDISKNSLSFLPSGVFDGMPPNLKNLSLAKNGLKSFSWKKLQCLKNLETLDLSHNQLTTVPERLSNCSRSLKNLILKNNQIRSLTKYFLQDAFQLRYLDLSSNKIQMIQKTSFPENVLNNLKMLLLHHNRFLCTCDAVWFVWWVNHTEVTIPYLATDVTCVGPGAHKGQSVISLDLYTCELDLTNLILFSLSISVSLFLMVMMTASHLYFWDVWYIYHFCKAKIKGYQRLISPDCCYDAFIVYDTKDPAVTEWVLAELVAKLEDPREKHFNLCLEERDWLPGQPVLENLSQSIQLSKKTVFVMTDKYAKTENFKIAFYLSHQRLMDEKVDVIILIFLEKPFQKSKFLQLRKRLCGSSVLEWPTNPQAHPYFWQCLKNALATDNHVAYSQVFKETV

SMILES	IC50 [1]	inhibits TLR9-dependent responses (in words) [1]	IC50 [2]
Cc1ccc(-n2nc3c(N4CCC(C(=O)NCCCN(C)Cc5ccccc5)CC4)nnc(C)c3c2C)cc1 [Compound No. 1, N-(3-(benzyl(methyl)amino)propyl)-1-(3,4-dimethyl-2-(p-tolyl)-2H-pyrazolo[3,4-d]pyridazin-7-yl)piperidine-4-carboxamide]	40 nM	inhibit	2970 nM
Cc1ccc(-n2nc3c(N4CCC(C(=O)NCCCN(C)C)CC4)nnc(C)c3c2C)cc1 [Compound No. 5, 1-(3,4-dimethyl-2-(p-tolyl)-2H-pyrazolo[3,4-d]pyridazin-7-yl)-N-(3-(dimethylamino)propyl)piperidine-4-carboxamide]	40 nM	inhibit	2230 nM
Cc1ccc(-n2nc3c(N4CCC(C(=O)NCC(C)(C)CNc5ccccc5)CC4)nnc(C)c3c2C)cc1 [2-1]	4650 nM	–	> 10000 nM
Cc1ccc(-n2nc3c(N4CCC(C(=O)NC5CN(Cc6ccccc6)C5)CC4)nnc(C)c3c2C)cc1 [Compound No. 4, N-(1-benzylazetidin-3-yl)-1-(3,4-dimethyl-2-(p-tolyl)-2H-pyrazolo[3,4-d]pyridazin-7-yl)piperidine-4-carboxamide]	93 nM	inhibit	3360 nM
Cc1ccc(-n2nc3c(N4CCC(C(=O)NCCCc5c[nH]cn5)CC4)nnc(C)c3c2C)cc1 [Compound No. 6, N-(3-(1H-imidazol-4-yl)propyl)-1-(3,4-dimethyl-2-(p-tolyl)-2H-pyrazolo[3,4-d]pyridazin-7-yl)piperidine-4-carboxamide]	154 nM	–	> 10000 nM
Cc1ccc(-n2nc3c(N4CCC(C(=O)NC5CN(C)C5)CC4)nnc(C)c3c2C)cc1 [Compound No. 3, 1-(3,4-dimethyl-2-(p-tolyl)-2H-pyrazolo[3,4-d]pyridazin-7-yl)-N-(1-methylazetidin-3-yl)piperidine-4-carboxamide]	143 nM	–	–
Cc1ccc(-n2nc3c(N4CCC(CCC(=O)NCCN(C)C)CC4)nnc(C)c3c2C)cc1 [Compound No. 9, 3-(1-(3,4-dimethyl-2-(p-tolyl)-2H-pyrazolo[3,4-d]pyridazin-7-yl)piperidin-4-yl)-N-(2-(dimethylamino)ethyl)propanamide]	3 nM	–	> 10000 nM
Cc1ccc(-n2nc3c(N4CCC(C(=O)N5CCN(Cc6ccccc6)CC5)CC4)nnc(C)c3c2C)cc1 [Compound No. 2, (4-benzylpiperazin-1-yl)(1-(3,4-dimethyl-2-(p-tolyl)-2H-pyrazolo[3,4-d]pyridazin-7-yl)piperidin-4-yl)methanone]	242 nM	inhibit	9930 nM
